The NIST ThermoML archive (doi:10.1021/acs.jced.6b00536)
Numbers after ± are expanded uncertainties.

Test: xn = mol fraction of the nth substance listed
Conditions: Gas, Frequency=0.05 MHz, Single path-length method, x2 = 0.056

FC(F)(F)C(F)(F)C(F)(F)F [octafluoropropane] + FC(F)(F)C(F)(F)F
Conditions	speed of sound [m/s]
252.6 K, 87.5 kPa	107.26 ± 0.1
252.6 K, 102.5 kPa	106.66 ± 0.1
252.6 K, 119.8 kPa	106.02 ± 0.1
252.6 K, 143.2 kPa	105.14 ± 0.1
252.6 K, 173.7 kPa	103.91 ± 0.1
252.6 K, 201.7 kPa	102.77 ± 0.1
257.7 K, 88.9 kPa	108.41 ± 0.1
257.7 K, 104.4 kPa	107.85 ± 0.1
257.7 K, 122.1 kPa	107.22 ± 0.1
257.7 K, 146.2 kPa	106.37 ± 0.1
257.7 K, 177.3 kPa	105.18 ± 0.1
257.7 K, 206.4 kPa	104.1 ± 0.1
257.7 K, 234.4 kPa	102.97 ± 0.1
262.8 K, 90.4 kPa	109.57 ± 0.1
262.8 K, 106.6 kPa	109.02 ± 0.1
262.8 K, 124.5 kPa	108.41 ± 0.1
262.8 K, 148.9 kPa	107.58 ± 0.1
262.8 K, 180.9 kPa	106.46 ± 0.1
262.8 K, 210.8 kPa	105.41 ± 0.1
262.8 K, 239.7 kPa	104.33 ± 0.1
262.8 K, 276.7 kPa	102.88 ± 0.1
267.9 K, 91.9 kPa	110.71 ± 0.1
267.9 K, 108.6 kPa	110.16 ± 0.1
267.9 K, 126.8 kPa	109.58 ± 0.1
267.9 K, 151.8 kPa	108.79 ± 0.1
267.9 K, 184.5 kPa	107.7 ± 0.1
267.9 K, 215.2 kPa	106.69 ± 0.1
267.9 K, 245.1 kPa	105.66 ± 0.1
267.9 K, 283.1 kPa	104.27 ± 0.1
273.1 K, 93.6 kPa	111.83 ± 0.1
273.1 K, 110.7 kPa	111.31 ± 0.1
273.1 K, 129.5 kPa	110.76 ± 0.1
273.1 K, 154.8 kPa	109.99 ± 0.1
273.1 K, 188.5 kPa	108.94 ± 0.1
273.1 K, 220.5 kPa	107.96 ± 0.1
273.1 K, 249.8 kPa	106.97 ± 0.1
273.1 K, 290.4 kPa	105.61 ± 0.1
278.2 K, 95.1 kPa	112.94 ± 0.1
278.2 K, 112.5 kPa	112.44 ± 0.1
278.2 K, 131.9 kPa	111.89 ± 0.1
278.2 K, 157.6 kPa	111.15 ± 0.1
278.2 K, 192.1 kPa	110.13 ± 0.1
278.2 K, 224.8 kPa	109.21 ± 0.1
278.2 K, 255 kPa	108.24 ± 0.1
278.2 K, 296.7 kPa	106.96 ± 0.1
283.2 K, 96.7 kPa	114.02 ± 0.09
283.2 K, 114.4 kPa	113.54 ± 0.09
283.2 K, 134 kPa	113.01 ± 0.1
283.2 K, 160.5 kPa	112.31 ± 0.1
283.2 K, 195.7 kPa	111.31 ± 0.1
283.2 K, 229.1 kPa	110.42 ± 0.1
283.2 K, 260.1 kPa	109.49 ± 0.1
283.2 K, 303 kPa	108.25 ± 0.1
288.3 K, 98.2 kPa	115.1 ± 0.09
288.3 K, 116.5 kPa	114.63 ± 0.09
288.3 K, 136.2 kPa	114.12 ± 0.09
288.3 K, 163.5 kPa	113.43 ± 0.1
288.3 K, 199.4 kPa	112.48 ± 0.1
288.3 K, 233.4 kPa	111.61 ± 0.1
288.3 K, 265.3 kPa	110.72 ± 0.1
288.3 K, 309.2 kPa	109.53 ± 0.1
293.3 K, 100.1 kPa	116.16 ± 0.09
293.3 K, 118.3 kPa	115.7 ± 0.09
293.3 K, 118.5 kPa	115.72 ± 0.09
293.3 K, 138.4 kPa	115.2 ± 0.09
293.3 K, 138.6 kPa	115.22 ± 0.09
293.3 K, 166.2 kPa	114.54 ± 0.09
293.3 K, 166.5 kPa	114.55 ± 0.09
293.3 K, 203 kPa	113.61 ± 0.1
293.3 K, 203.4 kPa	113.63 ± 0.09
293.3 K, 237.8 kPa	112.79 ± 0.1
293.3 K, 270.3 kPa	111.92 ± 0.09
293.3 K, 271.3 kPa	111.92 ± 0.09
293.3 K, 315.4 kPa	110.77 ± 0.1
298.4 K, 101.4 kPa	117.22 ± 0.09
298.4 K, 120.3 kPa	116.79 ± 0.09
298.4 K, 140.7 kPa	116.3 ± 0.09
298.4 K, 169.3 kPa	115.65 ± 0.09
298.4 K, 206.9 kPa	114.77 ± 0.09
298.4 K, 242.3 kPa	113.97 ± 0.1
298.4 K, 275.6 kPa	113.13 ± 0.1
298.4 K, 321.7 kPa	112.02 ± 0.1
303.4 K, 102.9 kPa	118.27 ± 0.09
303.4 K, 122.2 kPa	117.85 ± 0.09
303.4 K, 143.1 kPa	117.38 ± 0.09
303.4 K, 172.2 kPa	116.75 ± 0.09
303.4 K, 210.6 kPa	115.9 ± 0.09
303.4 K, 246.6 kPa	115.1 ± 0.09
303.4 K, 280.7 kPa	114.31 ± 0.1
303.4 K, 327.8 kPa	113.24 ± 0.1
308.5 K, 104.4 kPa	119.31 ± 0.09
308.5 K, 124.1 kPa	118.88 ± 0.09
308.5 K, 145.4 kPa	118.44 ± 0.09
308.5 K, 175.2 kPa	117.83 ± 0.09
308.5 K, 214.1 kPa	117 ± 0.09
308.5 K, 251 kPa	116.24 ± 0.09
308.5 K, 285.8 kPa	115.47 ± 0.09
308.5 K, 334 kPa	114.43 ± 0.1
313.5 K, 105.9 kPa	120.35 ± 0.09
313.5 K, 126 kPa	119.93 ± 0.09
313.5 K, 147.7 kPa	119.48 ± 0.09
313.5 K, 177.9 kPa	118.9 ± 0.09
313.5 K, 217.6 kPa	118.09 ± 0.09
313.5 K, 255.2 kPa	117.36 ± 0.09
313.5 K, 290.9 kPa	116.61 ± 0.09
313.5 K, 340 kPa	115.6 ± 0.1
318.5 K, 107.5 kPa	121.35 ± 0.09
318.5 K, 127.9 kPa	120.96 ± 0.09
318.5 K, 150.1 kPa	120.53 ± 0.09
318.5 K, 180.8 kPa	119.96 ± 0.09
318.5 K, 221.2 kPa	119.17 ± 0.09
318.5 K, 259.7 kPa	118.47 ± 0.09
318.5 K, 296 kPa	117.74 ± 0.09
318.5 K, 346.1 kPa	116.75 ± 0.1
323.5 K, 109.2 kPa	122.36 ± 0.09
323.5 K, 130 kPa	121.97 ± 0.09
323.5 K, 152.5 kPa	121.55 ± 0.09
323.5 K, 183.8 kPa	121 ± 0.09
323.5 K, 225 kPa	120.25 ± 0.09
323.5 K, 264.1 kPa	119.56 ± 0.09
323.5 K, 301.1 kPa	118.85 ± 0.09
323.5 K, 352.2 kPa	117.91 ± 0.09
